Assay results: publication PMC9970268 (Cancer Research Communications, 2022)

How the values were obtained:
GFP-HER2-BM cells = assay: Cell viability (MTT) assay; type: cell-based, human; conditions: for GI50: 0 to 1,000 nmol/L
Procedure: (§1) Using CellTiter 96 Non-Radioactive Cell Proliferation Assay (Promega, Corp.) according to manufactures’ instructions, formazan was used as an indicator of viable cells at an absorbance 570 nm in a Tecan Microplate Reader M100 (Tecan). Data were calculated as fold change from vehicle and transformed to logarithm base 10. 0 concentration was replaced with 1 nmol/L to fit using the 4-parameter logic nonlinear regression model in GraphPad Prism software. (n = 3 biologic replicates: with three technical replicates each).
(§2) All half maximal growth inhibitory concentration (GI50) values were determined by using the 4-parameter logistic curve model in GraphPad Prism 9 software. Statistical analyses were done also using GraphPad Prism 9 software, and differences were considered statistically significant at P ≤ 0.05 using ordinary one-way ANOVA or unpaired Student t test with Dunnet multiple comparison tests.

MCF10A cells = assay: Cell viability (MTT) assay; type: cell-based, human; conditions: for inhibition of cell viability: 250 nmol/L, 120 hr; for GI50: Homo sapiens, MCF-10A, 120 hours, 0 to 1,000 nmol/L
Procedure: as §1, §2

MDA-MB-231 cells [1] = assay: Cell viability (MTT) assay; type: cell-based, human; conditions: for inhibition of cell viability: 250 nmol/L, 120 hr; for GI50: 120 hours, 0 to 1,000 nmol/L
Procedure: as §1, §2

MDA-MB-231 cells [2] = assay: Phalloidin staining of F-actin, cell phenotype; type: cell-based, human; conditions: 250 nmol/L, 12 hours
Excerpt: Cells were fixed, permeabilized, and stained with rhodamine phalloidin to visualize F-actin as described previously ([23]). Fluorescence micrographs were acquired at 40× in a Keyence fluorescence microscope.

A549 lung cancer cells = assay: EGF-induced ruffle formation; type: cell-based, human; conditions: 24 hours, then EGF 200 ng/mL; for loss in ruffles: 500 nmol/L; for decrease in ruffles: 1,000 nmol/L
Procedure: Cells were fixed with 4% formaldehyde and F-actin stained with rhodamine phalloidin. Slides were visualized by fluorescence microscopy and five random fields were scored for the number of ruffles. Ruffle area was measured by thresholding for single intensity using ImageJ/Fiji software, as in ref. [29].

[3] = tested on: GFP-HER2-BM mammary fatpad tumors; assay: Orthotopic spontaneous metastasis mouse model; type: in vivo; conditions: for weight and liver toxicity (aspartate transaminase and alanine transaminase from plasma): 5× a week at 5 mg/kg for 53 days
Procedure: All animal studies were conducted under approved protocol A8180118 Institutional Animal Care and Use Committee, in accordance with the NIH Guideline for the Care and Use of Laboratory Animals. Female SCID mice, 3–4 weeks old (Charles River Laboratories, Inc.), were maintained under pathogen-free conditions in High Efficiency Particulate Air (HEPA)-filtered cages.
GFP-HER2-BM (∼7 × 10^5) cells in Matrigel (BD Biosciences) were injected at the fourth right mammary fat pad under isoflurane inhalation (1%–3% in oxygen using an inhalation chamber at 2 L/minute) to produce orthotopic primary tumors. After tumor establishment (1-week after inoculation), animals were randomly divided into treatment groups (n = 5).
[…]. Treatments continued until sacrifice at day 53.
Mammary tumor growth was quantified by integrated density of GFP fluorescence. After tumor establishment, mice were imaged before starting treatment, and once a week thereafter for 53 days, using the iBoxScientia (Analytik-Jena GmbH). Tumor fluorescence intensities were analyzed using ImageJ software (NIH, Bethesda, MD). Relative tumor growth was calculated as the integrated density of fluorescence of each tumor on each day of imaging relative to the integrated density of fluorescence of the same tumor on day 1 of treatment. After sacrifice at day 60, lungs, kidneys, livers, and spleens were excised and immediately stored in liquid N2. To quntify metastasis, stored organs were thawed and analyzed, as whole organs on both sides, using an Olympus MV10 fluorescence macro zoom system microscope and images acquired with an Olympus DP71 digital camera. The fluorescent lesions (green component of RGB images) were quantified for integrated density of fluorescent pixels using Image J software.

PAK1/2/3 = assay: Western blot of PAK phosphorylation in MDA-MB-231 cells; type: cell-based, human; conditions: MDA-MB-231, 250 nmol/L
Excerpt: Total cell lysates or pulldowns were Western blotted using routine procedures. The primary antibodies used were anti-Rac (Cell Signaling Technology), anti-Cdc42 (Abcam), anti-PAK1+PAK2+PAK3 (Cell Signaling Technology), anti-pPAK1 (T423)/PAK2 (T402; Abcam), anti-PAK1 + PAK2 + PAK3 (phospho T423; Abcam), Rac1B, and β-actin (Millipore-Sigma).

[4] = biological target: T1, Cdc42(G15A) interaction with Ect2 (Homo sapiens, UniProt P60953, G15A); assay: Cdc42 (G15A) pulldown assay, Ect2; type: binding; conditions: 250 nmol/L, 1 hour preincubation, MDA-MB-231 cell lysates
T1 construct: purchased Cell Biolabs; host or cells: GEF from MDA-MB-231 lysate
Procedure: MDA-MB-231 cells were lysed in 1% Triton X-100, 20 mmol/L HEPES, pH 7.4, 150 mmol/L NaCl, 5 mmol/L MgCl2, and protease inhibitors, and processed as described previously ([20]). Equal amounts of protein from cleared lysates were incubated for 1 hour at 4°C with glutathione-agarose beads conjugated to GST-Rac1 and GST-Cdc42(G15A) nucleotide-free mutant (Cell Biolabs) that were preincubated (for 1 hour) with vehicle or Rac/Cdc42 inhibitors, as indicated. The beads were washed, and pulldowns were immunoblotted for Vav2 or Ect2.

Cdc42 [5] = biological target: T2, Cdc42 (Homo sapiens, UniProt P60953); assay: Nucleotide association assay, catalyzed by Dbs; type: biochemical; parameters: purchased Cytoskeleton, Inc; conditions: 2 or 10 μmol/L, N-MAR-GTP
Procedure: (§3) The nucleotide loading on purified Rho GTPases was monitored using a fluorophore-based Rho GEF Exchange Assay Kit as per manufacturer's instructions (Cytoskeleton, Inc.). Drugs were diluted in exchange buffer and incubated with Rac1, Cdc42, or RhoA. The uptake of fluorescent nucleotide analog N-methylanthraniloyl-GTP (N-MAR-GTP) was measured as an increase in fluorescence due to binding to the nucleotide binding pocket of a GTPase. The fluorimeter was set at 20°C on kinetic mode and N-MAR GTP was detected at […]. After the initial five readings (T0), GEFs (Dbs or Vav2) or Ethylenediaminetetraacetic acid (EDTA) was added to stimulate exchange and readings were obtained every 30 seconds for at least 60 cycles.

Cdc42 [6] = biological target: T2, Cdc42; assay: Nucleotide association assay, induced by EDTA; type: biochemical; parameters: purchased Cytoskeleton, Inc; conditions: for EDTA-induced nucleotide loading of N-MAR-GTP on Cdc42: 2 and 10 μmol/L
Procedure: as §3

[7] = 5 mg/kg BW, intraperitoneal, 53 days

T2 sequence (P60953 whole entry): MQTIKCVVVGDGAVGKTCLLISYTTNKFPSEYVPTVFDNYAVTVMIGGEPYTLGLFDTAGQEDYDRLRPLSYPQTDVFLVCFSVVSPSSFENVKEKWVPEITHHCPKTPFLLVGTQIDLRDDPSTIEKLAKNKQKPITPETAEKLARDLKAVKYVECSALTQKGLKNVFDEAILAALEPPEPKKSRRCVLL
T1 sequence (P60953 whole entry G15A): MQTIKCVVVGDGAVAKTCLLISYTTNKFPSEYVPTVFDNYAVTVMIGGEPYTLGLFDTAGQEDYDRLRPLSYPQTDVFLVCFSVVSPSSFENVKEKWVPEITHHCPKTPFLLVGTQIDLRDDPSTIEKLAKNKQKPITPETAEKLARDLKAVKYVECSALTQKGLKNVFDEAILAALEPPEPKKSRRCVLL

| SMILES | inhibition of cell viability (GFP-HER2-BM cells; 250 nmol/L, 120 hr) | inhibition of cell viability (GFP-HER2-BM cells; 500 nmol/L, 72 hours) | inhibition of cell viability (MCF10A cells) [%] | GI50 (MCF10A cells) [nM] | inhibition of cell viability (MDA-MB-231 cells [1]) [%] | cell phenotype, actin cytoskeleton (MDA-MB-231 cells [2]) | loss in ruffles (A549 lung cancer cells) [%] | decrease in ruffles (A549 lung cancer cells) [%] | inhibition in tumor growth compared with vehicle [3, 7] | weight and liver toxicity (aspartate transaminase and alanine transaminase from plasma) [3] | reduction of p-PAK1/3 levels (Thr423) (PAK1/2/3) | reduction of p-PAK2 S144 (61 kD band) (PAK1/2/3) | reduction of p-PAK2 T423 (61 kD band) (PAK1/2/3) | Cdc42(G15A) interaction with Ect2 [4] | inhibition of GTP loading on Cdc42 catalyzed by Dbs (Cdc42 [5]) | EDTA-induced nucleotide loading of N-MAR-GTP on Cdc42 (Cdc42 [6]) | further results |
| --- | --- | --- | --- | --- | --- | --- | --- | --- | --- | --- | --- | --- | --- | --- | --- | --- | --- |
| CCn1c2ccccc2c2cc(-n3nncc3-c3ccccc3)ccc21 [MBQ-167] | approximately 85% | approximately 75% | 30 | 296 | 50 | acquired a round shape with punctate actin staining | 54 | 63 | approximately 90% | did not significantly change weight or liver toxicity | approximately 75% | approximately 50% | approximately 60% | no effect | did not affect | inhibited the nucleotide loading of N-MAR-GTP at 10 μmol/L | GI50 (GFP-HER2-BM cells; 120 hours): ~160 nM; GI50 (GFP-HER2-BM cells; Homo sapiens, 120 h): 163 nM; GI50 (MDA-MB-231 cells [1]): ~160 nM; GI50 (MDA-MB-231 cells [1]; Homo sapiens, MDA-MB-231, 120 h): 162 nM; inhibition of lung, liver, and kidney metastases compared with vehicle [3, 7]: approximately 90% |
| CCn1c2ccccc2c2cc(-n3nncc3-c3cccc(OC)c3)ccc21 [MBQ-168] | approximately 85% | approximately 75% | 30 | 304 | 50 | acquired a round shape with punctate actin staining | 67 | 79 | approximately 90% | did not significantly change weight or liver toxicity | approximately 100% | approximately 50% | approximately 100% | no effect | 10%–20% | reduced nucleotide loading at both 2 and 10 μmol/L | GI50 (GFP-HER2-BM cells; Homo sapiens, 120 hours): 171 nM; GI50 (MDA-MB-231 cells [1]; Homo sapiens, MDA-MB-231): 199 nM; decrease of p-PAK ser 141, 154, PAK1/3 (68 kD band) (PAK1/2/3): approximately 95%; inhibition at 10 µM (Cdc42 [6]; 10 μmol/L, N-MAR-GTP, read-out: inhibition of EDTA-induced GTP exchange on Cdc42): 100% |
